Measurements taken from publication PMC13147306 (The Febs Journal, 2025).

Assays:
[1] = tested on: AthePKS; test: steady-state kinetics, HPLC of product 1b; format: biochemical; settings: read-out: apparent Km; 400 μM malonyl-CoA, 50 mM Tris/HCl pH 7.5, 37 °C
[2] = molecular target: T1, DnrK (Streptomyces peucetius, UniProt Q06528); test: O-methylation assay, LC-MS/HPLC; format: biochemical; settings: 0.5 mM substrate, 2 mM SAM, 5 μM enzyme, HEPES-NaOH pH 8, 37 °C, 24 h
T1 sequence (Q06528 1-356): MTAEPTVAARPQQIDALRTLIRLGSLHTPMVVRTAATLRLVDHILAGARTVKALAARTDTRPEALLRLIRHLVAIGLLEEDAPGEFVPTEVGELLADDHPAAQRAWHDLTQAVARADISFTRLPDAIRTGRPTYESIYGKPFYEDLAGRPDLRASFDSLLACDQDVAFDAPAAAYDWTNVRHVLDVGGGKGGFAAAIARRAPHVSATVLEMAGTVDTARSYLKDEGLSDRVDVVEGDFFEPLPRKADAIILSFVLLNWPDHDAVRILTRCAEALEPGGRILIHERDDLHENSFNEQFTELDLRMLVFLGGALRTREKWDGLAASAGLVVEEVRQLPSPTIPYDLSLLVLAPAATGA

Km [1]	Compound	O-methylation assay, LC-MS/HPLC [2]
42.6 µM	CNc1ccccc1C(=O)SCCNC(=O)CCNC(=O)[C@H](O)C(C)(C)COP(=O)(O)OP(=O)(O)OC[C@H]1O[C@@H](n2cnc3c(N)ncnc32)[C@H](O)[C@@H]1OP(=O)(O)O [1a, N-methylanthraniloyl-CoA]	–
–	Cn1c(=O)cc(O)c2ccccc21 [1b, 4-hydroxy-1-methyl-2-quinolone]	DnrK was still the best‐performing enzyme
–	O=c1cc(O)c2ccccc2[nH]1 [2b]	it was also active with the other heterocycles 2b, 6b, and 8b
